Legend:
[1] = In vitro drug release behavior of soft bio-integrated device; format: physicochemical; conditions: within one week, PBS (pH 7.4), 37° C., FIG. 31A
Method: A scaffold in which gemcitabine, rhodamine-attached poly(I:C)/nanogel, and a 4T1 cell lysate were loaded was added to 1 mL of PBS (pH 7.4), and stored at 37° C. and 90 rpm. Every selected time interval, the original culture medium was obtained and exchanged with a fresh medium. An amount of gemcitabine released from the scaffold was measured using absorbance (275 nm, UV-1800; Shimadzu, Kyoto, Japan), the rhodamine-attached poly(I:C) was measured according to the protocol of the 5'[…] Nucleic Acid Labeling System (Vector Laboratories), and the 4T1 cell lysate was measured using the BCA assay method (Pierce Biotechnology). Specifically, a fluorescence spectrometer (PerkinElmer) was used to detect and analyze fluorescence at 552 nm (excitation) and 575 nm (emission) from the poly(I:C)/nanogel attached to rhodamine released from the scaffold.

[2] = test system: 4T1 breast cancer cell line; test: Gemcitabine-induced apoptosis of 4T1 breast cancer cells (FITC Annexin V); format: cell-based; conditions: change in gemcitabine concentration, FIG. 31C
Method: In addition, the activation of BMDCs using a gemcitabine-treated 4T1 breast cancer cell line was confirmed. […] The gemcitabine-induced apoptosis of the 4T1 breast cancer cells was assessed according to the protocol of the FITC Annexin V Apoptosis kit (BD Biosciences). After 24 hours, a supernatant was collected, and then incubated with BMDCs. A BMDC activation marker was analyzed using an Accuri™ flow cytometer. Antibodies used herein were FITC-anti-CD11c and APC-anti-CD80 (BD Pharmingen).

BMDCs = test: Activation of BMDCs using gemcitabine-treated 4T1 breast cancer cell line; format: cell-based, mouse; conditions: gemcitabine-treated breast cancer cell line versus control, FIG. 31D
Method: In addition, the activation of BMDCs using a gemcitabine-treated 4T1 breast cancer cell line was confirmed. The 4T1 cells were cultured with 1 μg/mL gemcitabine in a 6-well plate at a density of 2×10^6 cells/well. The gemcitabine-induced apoptosis of the 4T1 breast cancer cells was assessed according to the protocol of the FITC Annexin V Apoptosis kit (BD Biosciences). After 24 hours, a supernatant was collected, and then incubated with BMDCs. A BMDC activation marker was analyzed using an Accuri™ flow cytometer. Antibodies used herein were FITC-anti-CD11c and APC-anti-CD80 (BD Pharmingen).

[3] = test system: myeloid-derived-suppressor cells (MDSCs); test: Gemcitabine-induced apoptosis of MDSCs (FITC Annexin V); format: cell-based, mouse; conditions: various gemcitabine concentrations, FIG. 31B
Method: Gemcitabine induces apoptosis of myeloid-derived-suppressor cells (MDSCs) in vitro. The spleen was extracted from a mouse harboring 4T1 tumors for 28 days, the extracted spleen was ground, and RBCs were removed therefrom using an RBC lysis buffer. The RBC-removed spleen cells were re-dispersed in a MACS buffer (PBS, 0.5% BSA, […]), MDSCs were isolated using an MDSC isolation kit (Miltenyi Biotec). The isolated myeloid-derived-suppressor cells were seeded in a 6-well plate at a density of 2×10^6 cells/well, and incubated with various concentrations of gemcitabine. The gemcitabine-induced apoptosis of the MDSCs was assessed according to the protocol of an FITC Annexin V Apoptosis kit (BD Biosciences).

4T1 tumor = test: In vivo anticancer effect after tumor resection and implantation of soft bio-integrated device; parameters: species or system BALB/c mice; conditions: day 7 and day 14, FIG. 38A
Method: When 1×10^6 4T1 cells were injected and the size of a growing tumor became 300 mm^3 on day 14 after injection, the tumor was partially resected. A mouse was anesthetized using 2,2,2-tribromoethanol. The surgical site was sterilized with 70% ethanol, and 90% of the tumor was resected so that 10% of the tumor remained. A scaffold was implanted near the remaining part of the tumor.
On day 7 and day 14 after tumor removal and implantation of a soft bio-integrated device, a mouse was sacrificed, and a tumor, the spleen and a lymph node of the sacrificed mouse were isolated to measure weights thereof.
The tumor and lymph node were cut into small pieces, dispersed in DMEM containing collagenase D, stored for 1 hour at 37° C. and 90 rpm, and then filtered through a 70-μm strainer. The spleen was physically disrupted, and then RBCs were removed using an RBC lysis buffer. The tumor and spleen dispersed as single cells by the above-described method were analyzed using APC-anti-CD11b and PE-anti-Gr1 antibodies to confirm myeloid-derived-suppressor cells and using APC-anti-CD3, PE-anti-CD4 and FITC-CD8 antibodies to confirm T cells. All antibodies were purchased from BD Pharmingen.
Moreover, to confirm tumor metastasis, on day 14 after the tumor removal, the mouse was sacrificed to confirm metastasis. […]

accumulation amount of gemcitabine released from the scaffold [1]: approximately 90%
SMILES: Nc1ccn([C@@H]2O[C@H](CO)[C@@H](O)C2(F)F)c(=O)n1 [gemcitabine]
dead cell percentage in breast cancer cell line (4T1) [2]: increased as the gemcitabine concentration increased | cell maturity of dendritic cells (BMDCs): increased | dead cell percentage of MDSCs [3]: increased as the gemcitabine concentration increased | MDSC proportion in the tumor and the spleen (4T1 tumor): reduced
